Measured values from patent US9731035B2, “Method of imaging osteoarthritis using a folate conjugate” (Purdue Research Foundation, priority 2005, dated 2017).
*1 amine or outer side, *2 acyl side, *3 side chain or, on linkers, in order; H or OH if unused. Where a SMILES comes first, the peptide text is derived from it. The star is where a group is joined. X1 = COc1ccc2c(c1)c(CC(=O)OCCS*)c(C)n2C(=O)c1ccc(Cl)cc1; Pteroyl = Nc1nc2ncc(CNc3ccc(C(=O)*)cc3)nc2c(=O)[nH]1; γGlu = O=C(O)[CH](CCC(=O)[*:2])N[*:1]

Columns and labels:
[1] = system: adjuvant-induced arthritis; assay: Adjuvant-induced arthritis in rats, paw swelling; format: in vivo, rat
Procedure: Arthritis was induced in 150-200 g female Lewis rats (Harlan, Indianapolis, Ind.), n=2-5/dose group. Briefly, 0.5 mg of heat-killed […] butericum, suspended in mineral oil (5 mg/ml), was injected on day 0 into the left hind foot of rats following anesthesia with ketamine and xylazine. All treated animals developed arthritis, as evidenced by dramatic swelling in the injected paw, progressive swelling in all noninjected limbs due to the systemic progression of arthritis, and radiographic analysis of affected limbs. All rats were maintained on a folate-deficient diet (DYETS, Inc., Bethlehem, Pa.) for 3 weeks prior to administration of therapeutic agents in order to lower serum folate levels to physiologically relevant concentrations. Control rats were also maintained on a folate-deficient diet but were not induced to develop arthritis.
The protocol described in Example 32 for arthritis induction was followed. The efficacy of folate-flumethasone (50 nmoles/kg/day) and folate-indomethacin (100 or 250 nmoles/kg/day) against adjuvant-induced arthritis in rats was investigated. Rats were injected intraperitoneally with either saline (control rats) or folate-flumethasone (50 nmoles/kg/day) or folate-indomethacin (100 or 250 nmoles/kg/day) starting at day 4. The sudden increase in swelling of the adjuvant-injected foot is due to influx of neutrophils which have no folate receptors. […]

[2] = molecular target: T1, folate receptors on white blood cells from mice (Mus musculus, UniProt Q05685); assay: 3H-folic acid binding to white blood cells from mice; conditions: with/without 100-fold excess folic acid, FIG. 4
T1 construct: endogenous in cells; host or cells: mouse white blood cells
T1 sequence (Q05685 21-227): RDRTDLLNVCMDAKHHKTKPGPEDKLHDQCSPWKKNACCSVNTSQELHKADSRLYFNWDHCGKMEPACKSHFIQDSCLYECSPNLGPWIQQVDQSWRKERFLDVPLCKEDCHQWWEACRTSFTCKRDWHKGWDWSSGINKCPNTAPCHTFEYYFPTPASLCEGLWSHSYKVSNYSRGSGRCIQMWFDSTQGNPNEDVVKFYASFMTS
Procedure: (§1) All binding experiments were conducted on ice or in a 4° C. cold room unless indicated otherwise. Folate conjugate and ^3H-folic acid binding studies were performed by incubating cells with a 100 nM concentration of the indicated folate dye conjugate for 45 minutes. […] An acidic wash to strip cell-surface bound folate conjugates was performed on indicated samples by washing the cell sample with a 150 mM NaCl solution adjusted to pH 3.5 with acetic acid. All antibody labeling was optimized by titration. Optimal labeling was most often achieved with a 1/1000-1/10,000 dilution of the manufacture's stock antibody solution. After cells were labeled with folate dye conjugates and/or antibodies, the samples were washed twice with PBS to remove non-specific binding. Analysis of folate conjugate binding and/or antibody binding was analyzed by confocal microscopy or by flow cytometry (FCS Calibur, BD, Franklin Lakes, N.J.). After washing ^3H-folic acid samples to remove non-specific binding, cells were dissolved in 0.25M NaOH and radioactivity was counted on a scintillation counter.

[3] = system: folate receptors on white blood cells from dogs; assay: 3H-folic acid binding to white blood cells from dogs; design: species or system dog; conditions: with/without 100-fold excess folic acid, FIG. 4
Procedure: as §1

[4] = system: folate receptors on peripheral blood monocytes of horses; assay: Folate-FITC binding to peripheral blood monocytes from horses, flow cytometry; design: species or system horse; conditions: with/without 100-fold excess folic acid, FIG. 5
Procedure: (§2) An 8-10 ml sample of whole blood was collected in EDTA anticoagulant tubes. PBMCs were isolated from the blood samples using Ficoll-Paque Plus (Amersham Biosciences, Piscataway, N.J.) and by following the manufacture's provided protocol. Briefly, the blood sample was diluted 50:50 with a balanced salt solution (described below). 8 mL of Ficoll-Paque Plus was added to a 50 ml conical centrifuge tube. The diluted blood sample (approximately 16-20 ml) was layered on top of the Ficoll gradient. The sample was centrifuged at 400×g for 30 minutes at room temperature. Following centrifugation, the plasma layer (top clear layer) was removed using a pipette leaving the lymphocyte/monocyte layer undisturbed. The hazy cell layer immediately below the plasma layer was removed, being careful to remove the entire cell interface but a minimum amount of the Ficoll layer. […]
(§3) All binding experiments were conducted on ice or in a 4° C. cold room unless indicated otherwise. […] Analysis of folate conjugate binding and/or antibody binding was analyzed by confocal microscopy or by flow cytometry (FCS Calibur, BD, Franklin Lakes, N.J.). After washing ^3H-folic acid samples to remove non-specific binding, cells were dissolved in 0.25M NaOH and radioactivity was counted on a scintillation counter.

[5] = system: folate receptors on peripheral blood monocytes of dogs; assay: Folate dye conjugate binding to peripheral blood monocytes from dogs, flow cytometry; design: species or system dog; conditions: with/without 100-fold excess folic acid, FIG. 5, FIG. 6
Procedure: as §2, §3

[6] = molecular target: T2, folate receptors on human peripheral blood monocytes (Homo sapiens, UniProt P14207); assay: Folate dye conjugate binding to human peripheral blood monocytes, flow cytometry; conditions: for percentage of human peripheral blood monocytes bound: CD11b+ monocytes, FIG. 2; for binding to human peripheral blood monocytes: FIG. 1
T2 construct: endogenous in cells; host or cells: human peripheral blood monocytes (PBMC isolated by Ficoll-Paque)
T2 sequence (P14207 17-230): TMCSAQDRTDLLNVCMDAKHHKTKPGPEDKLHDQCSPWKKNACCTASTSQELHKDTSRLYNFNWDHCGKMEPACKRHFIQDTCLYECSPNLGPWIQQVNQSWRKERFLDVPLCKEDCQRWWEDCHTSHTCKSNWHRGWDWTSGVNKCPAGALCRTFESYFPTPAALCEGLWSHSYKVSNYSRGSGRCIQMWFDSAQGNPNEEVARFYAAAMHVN
Procedure: An 8-10 ml sample of whole blood was collected in EDTA anticoagulant tubes. PBMCs were isolated from the blood samples using Ficoll-Paque Plus (Amersham Biosciences, Piscataway, N.J.) and by following the manufacture's provided protocol. Briefly, the blood sample was diluted 50:50 with a balanced salt solution (described below). 8 mL of Ficoll-Paque Plus was added to a 50 ml conical centrifuge tube. The diluted blood sample (approximately 16-20 ml) was layered on top of the Ficoll gradient. The sample was centrifuged at 400×g for 30 minutes at room temperature. Following centrifugation, the plasma layer (top clear layer) was removed using a pipette leaving the lymphocyte/monocyte layer undisturbed. The hazy cell layer immediately below the plasma layer was removed, being careful to remove the entire cell interface but a minimum amount of the Ficoll layer. The isolated cells were put into a sterile 50 ml conical centrifuge tube and diluted 3-fold (vol/vol) using the balanced salt solution. The resulting cell solution was gently mixed and centrifuged at 100×g for 10 minutes at room temperature to pellet the cells. The supernatant was removed and the cells were resuspended in folate deficient RPMI 1640 medium supplemented with 10% heat-inactivated FBS, penicillin (100 IU/ml) and streptomycin (100 μg/ml). Cells were seeded in microcentrifuge tubes or microscopy chambers as dictated by the experiment.
as §1

[7] = absence of unlabeled folic acid
[8] = presence of a 100-fold excess of unlabeled folic acid

Which “effect on paw swelling (left foot dimensions) after about 7 days” value ([1]; 100 or 250 nmoles/kg/day intraperitoneally starting at day 4, FIG. 9) does the source give for COc1ccc2c(c1)c(CC(=O)OCCSSCC(NC(=O)C(CC(=O)O)NC(=O)C(CC(=O)O)NC(=O)C(CCCNC(=N)N)NC(=O)C(CC(=O)O)NC(=O)CCC(NC(=O)c1ccc(NCc3cnc4nc(N)[nH]c(=O)c4n3)cc1)C(=O)O)C(=O)O)c(C)n2C(=O)c1ccc(Cl)cc1 (stereo not drawn) [folate-indomethacin] ({Pteroyl-γGlu}-DRDDC(X1)-OH; configuration not given here) here?
The value was “potent therapeutic effects”.

With Nc1nc2ncc(CNc3ccc(C(=O)N[C@@H](CCC(=O)O)C(=O)O)cc3)nc2c(=O)[nH]1 [^3H-Folic acid] as the compound, how does the “folate receptor detection on white blood cells” value [2] read?
Its value is “detectable”.

What about the “folate receptor detection on white blood cells” value [3] of the same compound?
The value was “detectable”.

Nc1nc2ncc(CNc3ccc(C(=O)NC(CCC(=O)NCCNC(=S)Nc4ccc(C(=O)O)c(-c5c6ccc(=O)cc-6oc6cc(O)ccc56)c4)C(=O)O)cc3)nc2c(=O)[nH]1 (stereo not drawn) [folate-FITC] was tested. Which “folate receptor detection on peripheral blood monocytes” value [4] did it give?
Its value is “detectable”.

What about the “folate receptor detection on peripheral blood monocytes” value [5] of the same compound?
Its value is “detectable”.

And the “percentage of human peripheral blood monocytes bound” value [6, 7]?
Its value is 45.9%.

And the “percentage of human peripheral blood monocytes bound” value [6, 8]?
The value was 2%.

And the “binding to human peripheral blood monocytes” value [6, 7]?
Its value is “bound”.

What about the “folate receptor detection on human peripheral blood monocytes” value ([6]; healthy humans and patients with rheumatoid arthritis, osteoarthritis, fibromyalgia, FIG. 8) of the same compound?
Its value is “detectable”.

And the “folate receptor detection on human peripheral blood monocytes” value ([6]; patients with rheumatoid arthritis over the course of therapy, FIG. 10)?
Its value is “detectable”.

And the “binding to human peripheral blood monocytes” value [6, 8]?
Its value is “competed”.

CC1CC2C3CC(F)C4=CC(=O)C=CC4(C)C3(F)C(O)CC2(C)C1(O)C(=O)COC(=O)OCCSSCC(NC(=O)CCC(NC(=O)c1ccc(NCc2cnc3nc(N)[nH]c(=O)c3n2)cc1)C(=O)O)C(=O)O (stereo not drawn) [folate-flumethasone] was tested. Which “effect on paw swelling (left foot dimensions) after about 7 days” value ([1]; 50 nmoles/kg/day intraperitoneally starting at day 4, FIG. 9) did it give?
Its value is “potent therapeutic effects”.
